# Data: patent publication US5240717A, “Process for mannose and mannose isomerase production using mannose isomerase-producing pseudomonas” (Amano Pharmaceutical Co., Ltd., priority 1990, dated 1993)
# Tested on: mannose isomerase
# Test: thermal and pH stability of the enzyme of the invention (residual activity)
# Assay type: physicochemical, Pseudomonas sp. AM-9582
# Details: presence of calcium ions
# Description: The residual activities after heating treatment at 60° C. for 5, 10, 15, 20, 30 minutes in 0.05M Tris buffer (pH 7.0) are, about 90%, 68%, 52%, 42%, 30% respectively.
# The residual activity was measured after the enzyme was incubated in 0.1M buffer (acetate or phosphate buffer) of various pH at room temperature (25° C.) for 3 hours. As the result, it is stable in the pH range 6 to 9.
# (§1) Into 0.5 ml of a 0.1M phosphate buffer (pH 7.0) containing 0.2M mannose dissolved therein is added a suitable amount of the enzyme, the total volume is made up with water to 1.0 ml, and the reaction mixture is incubated at 50° C. The amount of fructose formed is determined by the cysteine-carbazole method. The amount of the enzyme forming 1 micromole of fructose per one minute under this condition is defined as one unit.
row,Structure (SMILES),Effect on thermal stability of the enzyme
1,[Ca+2] [calcium ions],increases the thermal stability

# Tested on: Salmonella
# Test: not given
# Details: cited from earlier work
row,Structure (SMILES),Growth of Salmonella
1,O=C[C@@H](O)[C@@H](O)[C@H](O)[C@H](O)CO [D-mannose],inhibits the growth

# Tested on: mannose isomerase
# Test: mannose isomerase activity of the enzyme of the invention (optimum conditions, substrates, inhibitors)
# Assay type: biochemical, Pseudomonas sp. AM-9582
# Details: not given
# Description: It is active in a pH range from about 6 to 11, but the optimum pH is about 8 (under the reaction condition of 50° C. for 30 minutes, in 0.1M phosphate buffer).
# It is active up to about 70° C., but the optimum temperature is about 55° C. under the reaction conditions of 0.1M mannose, 0.05M Tris buffer (pH 7.0) for 30 minutes.
# as §1
row,Structure (SMILES),Substrate specificity (activity of the enzyme on the sugar)
1,O=C[C@H](O)[C@@H](O)[C@@H](O)CO [L-arabinose],not substantially
2,C[C@H](O)[C@@H](O)[C@@H](O)[C@H](O)C=O [L-fucose],not substantially
3,C[C@@H](O)[C@@H](O)[C@H](O)[C@H](O)C=O [D-rhamnose],not substantially
4,O=C[C@@H](O)[C@@H](O)[C@H](O)CO [D-lyxose],active
5,C[C@H](O)[C@H](O)[C@@H](O)[C@@H](O)C=O [L-rhamnose],not substantially
6,C[C@@H](O)[C@H](O)[C@H](O)[C@@H](O)C=O [D-fucose],not substantially
7,O=C[C@@H](O)[C@H](O)[C@H](O)CO [D-arabinose],not substantially
8,O=C[C@H](O)[C@@H](O)[C@H](O)CO [D-xylose],not substantially
9,O=C[C@@H](O)[C@@H](O)[C@H](O)[C@H](O)CO [D-mannose],active
10,O=C[C@H](O)[C@H](O)[C@H](O)CO [D-ribose],not substantially
11,O=C[C@@H](O)[C@H](O)[C@@H](O)CO [L-xylose],not substantially
12,O=C[C@H](O)[C@@H](O)[C@H](O)[C@H](O)CO [D-glucose],not substantially

# Same assay, conditions: 5×10^-3 M of inhibitor
row,Structure (SMILES),Inhibition of the enzyme
1,[Cl][Hg][Cl] [HgCl2],strongly inhibited
2,O=[N+]([O-])[O-].[Ag+] [AgNO3],strongly inhibited
3,O=C(O)c1cc[c]([Hg][Cl])cc1 [p-chloromercury benzoate],strongly inhibited
4,[Cl][Al]([Cl])[Cl] [AlCl3],strongly inhibited
5,O=S(=O)([O-])[O-].[Fe+2] [FeSO4],strongly inhibited
